Results on ten molecules are retold here after PMC11167517, “Synthesis, computational docking and molecular dynamics studies of a new class of spiroquinoxalinopyrrolidine embedded chromanone hybrids as potent anti-cholinesterase agents” (RSC Advances, 2024).

Assay [1] addresses acetylcholinesterase (AChE) (Electrophorus electricus, UniProt O42275). The assay is described as follows: In vitro acetylcholinesterase inhibitory assay (DTNB/acetylthiocholine iodide, absorbance at 412 nm). As to conditions: IC50(BChE)/IC50(AChE). In kind it is biochemical. As to the method: (§1) Acetylcholine is an important neurotransmitter involved in memory and cognition.[34] The enzymes AChE and BChE act on these neurotransmitters and degrade them to attenuate acetylcholine-mediated effects.[35] In neurodegenerative diseases, a reduced acetyl choline level is detrimental, leading to impaired memory and cognition.[36] […]
(§2) of test samples and 20 µL of 0.09 units/mL acetylcholinesterase enzyme. After 15 min. of incubation at 25 °C, 10 µL of 10 mM 5,50 -dithiobis-2-nitrobenzoic acid (DTNB) was added into each well followed by 10 µL of 14 mM acetylthiocholine iodide. Thirty minutes after the initiation of enzymatic reaction, absorbance of the colored end-product was measured using BioTek Power Wave X 340 Microplate Spectrophotometer at 412 nm. For butyrylcholinesterase (BuChE) inhibitory assay, the same procedure described above was followed, except for the use of enzyme and substrate, instead of which, butyrylcholine esterase from equine serum and S-butyrylthiocholine chloride were used. IC50 value was calculated by standard protocol Each test was conducted in triplicate. Absorbance of the test samples was corrected by subtracting the absorbance of their respective blank. Percentage inhibition was calculated using […]
(§3) Absorbance of control Absorbance of Sample
(§4) Percentage of inhibition = X 100
(§5) Selectivity for AChE defined as IC 50(BChE)/IC50(AChE).
(§6) Selectivity for BChE defined as IC 50(AChE)/IC50(BChE). […]

Assay [2] deals with T1, butyrylcholine esterase from equine serum (BChE) (Equus caballus, UniProt P81908).
T1 construct: esterase from equine serum; from tissue; host or cells: equine serum
T1 sequence (P81908 whole entry): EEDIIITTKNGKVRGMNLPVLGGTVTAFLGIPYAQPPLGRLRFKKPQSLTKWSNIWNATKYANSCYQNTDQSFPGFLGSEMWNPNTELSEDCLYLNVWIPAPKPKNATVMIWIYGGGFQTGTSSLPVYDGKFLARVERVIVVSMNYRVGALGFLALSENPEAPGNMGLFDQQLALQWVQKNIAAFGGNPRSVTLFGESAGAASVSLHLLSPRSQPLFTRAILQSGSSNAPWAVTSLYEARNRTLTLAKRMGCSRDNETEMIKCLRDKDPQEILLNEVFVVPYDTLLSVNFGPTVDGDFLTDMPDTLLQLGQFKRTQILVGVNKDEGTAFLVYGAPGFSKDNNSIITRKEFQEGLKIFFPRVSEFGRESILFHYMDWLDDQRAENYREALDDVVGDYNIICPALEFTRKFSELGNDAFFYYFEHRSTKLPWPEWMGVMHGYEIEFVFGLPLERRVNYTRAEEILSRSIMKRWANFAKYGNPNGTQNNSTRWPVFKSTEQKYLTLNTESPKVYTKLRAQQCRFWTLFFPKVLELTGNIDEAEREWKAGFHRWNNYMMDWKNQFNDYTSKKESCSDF
The assay is described as follows: biochemical. As to conditions: for BChE selectivity: IC50(AChE)/IC50(BChE); for IC50: in vitro, triplicate, read-out: BChE inhibition IC50 μM (±SD). The protocol:
as §1, §2, §3, §4, §5, §6

Sequence of acetylcholinesterase (AChE) (O42275 24-633): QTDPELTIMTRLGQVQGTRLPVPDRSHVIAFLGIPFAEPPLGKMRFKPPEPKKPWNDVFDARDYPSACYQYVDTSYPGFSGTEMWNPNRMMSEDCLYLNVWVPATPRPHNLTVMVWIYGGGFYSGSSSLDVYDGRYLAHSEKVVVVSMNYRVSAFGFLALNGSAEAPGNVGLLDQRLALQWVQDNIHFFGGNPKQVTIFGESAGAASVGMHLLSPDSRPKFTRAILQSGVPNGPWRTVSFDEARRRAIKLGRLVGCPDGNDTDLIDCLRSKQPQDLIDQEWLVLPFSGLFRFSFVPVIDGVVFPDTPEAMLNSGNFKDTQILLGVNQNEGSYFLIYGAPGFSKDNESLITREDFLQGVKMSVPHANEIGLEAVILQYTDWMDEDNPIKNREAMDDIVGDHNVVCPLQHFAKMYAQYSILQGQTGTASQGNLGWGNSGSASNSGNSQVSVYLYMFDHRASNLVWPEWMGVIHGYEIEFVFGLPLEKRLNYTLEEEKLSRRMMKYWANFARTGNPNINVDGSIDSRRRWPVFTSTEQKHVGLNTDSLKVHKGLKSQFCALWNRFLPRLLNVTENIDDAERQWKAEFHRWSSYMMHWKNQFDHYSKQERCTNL

Consider `O=C1c2ccccc2OC[C@@]12[C@H](c1ccc(Br)cc1)[C@@H](Cc1ccccc1)NC21c2ccccc2-c2nc3ccccc3nc21` (stereo partly drawn) [Compound 5b], for which the AChE selectivity in assay [1] was 1.32. In addition, in assay [2], the BChE selectivity stood at 0.76 and the concentration for half-maximal inhibition (IC50) came to 24.12 ± 0.16 µM.

`O=C1c2ccccc2OC[C@@]12[C@H](c1ccccc1F)[C@@H](Cc1ccccc1)NC21c2ccccc2-c2nc3ccccc3nc21` (stereo partly drawn) [Compound 5e] gave an AChE selectivity in assay [1] of 3.83. For the same molecule, in assay [2], the BChE selectivity stood at 0.26 and the concentration for half-maximal inhibition (IC50) amounted to 20.2 ± 0.24 µM.

In assay [1], `O=C1c2ccccc2OCC12C(c1ccccc1Cl)C(Cc1ccccc1)NC21c2ccccc2-c2nc3ccccc3nc21` (stereo not drawn) [Compound 5c, 5-Benzyl-4-(2-chlorophenyl)-2-spiro[2,6′′]indenoquinoxalino-3-spiro[3,3′]-chromanonopyrrolidine] showed an AChE selectivity of 4.92. Moreover, in assay [2], the BChE selectivity was determined as 0.20 and the concentration for half-maximal inhibition (IC50) turned out to be 22.16 ± 0.14 µM.

In the case of `O=C1c2ccccc2OC[C@@]12[C@H](c1ccc(F)cc1)[C@@H](Cc1ccccc1)NC21c2ccccc2-c2nc3ccccc3nc21` (stereo partly drawn) [Compound 5f], the AChE selectivity in assay [1] came to 5.67. Further, in assay [2], the BChE selectivity was determined as 0.18 and the half-inhibitory concentration (IC50) was 18.14 ± 0.06 µM.

In assay [1], `COc1ccc([C@@H]2[C@@H](Cc3ccccc3)NC3(c4ccccc4-c4nc5ccccc5nc43)[C@]23COc2ccccc2C3=O)cc1` (stereo partly drawn) [Compound 5i] returned an AChE selectivity of 1.29. Also, in assay [2], the BChE selectivity is given as 0.77 and the IC50 came out at 29.18 ± 0.12 µM.

Molecule `O=C1c2ccccc2OC[C@@]12[C@H](c1cccc([N+](=O)[O-])c1)[C@@H](Cc1ccccc1)NC21c2ccccc2-c2nc3ccccc3nc21` (stereo partly drawn) [Compound 5j] registered an AChE selectivity in assay [1] of 1.93. For the same molecule, in assay [2], the BChE selectivity was 0.52 and the IC50 was 20.16 ± 0.2 µM.

`O=C1c2ccccc2OC[C@@]12[C@H](c1ccc(Cl)cc1)[C@@H](Cc1ccccc1)NC21c2ccccc2-c2nc3ccccc3nc21` (stereo partly drawn) [Compound 5d] displayed an AChE selectivity in assay [1] of 2.72. For the same molecule, in assay [2], the BChE selectivity is 0.37 and the half-maximal inhibitory concentration (IC50) was determined as 21.02 ± 0.18 µM.

In assay [1], `O=C1c2ccccc2OC[C@@]12[C@H](c1ccccc1)[C@@H](Cc1ccccc1)NC21c2ccccc2-c2nc3ccccc3nc21` (stereo partly drawn) [Compound 5a] registered an AChE selectivity of 1.27. Further, in assay [2], the BChE selectivity is reported as 0.79 and the IC50 stood at 28.12 ± 0.25 µM.

As to `COc1cccc([C@@H]2[C@@H](Cc3ccccc3)NC3(c4ccccc4-c4nc5ccccc5nc43)[C@]23COc2ccccc2C3=O)c1` (stereo partly drawn) [Compound 5h], in assay [1], the AChE selectivity stood at 1.25. Moreover, in assay [2], the BChE selectivity is given as 0.80 and the IC50 stood at 30.15 ± 0.1 µM.

`Cc1ccc([C@@H]2[C@@H](Cc3ccccc3)NC3(c4ccccc4-c4nc5ccccc5nc43)[C@]23COc2ccccc2C3=O)cc1` (stereo partly drawn) [Compound 5g] displayed an AChE selectivity in assay [1] of 1.38. Moreover, in assay [2], the BChE selectivity stood at 0.72 and the half-maximal inhibitory concentration (IC50) came to 29.8 ± 0.12 µM.
